Laboratory results taken from article PMC12297997, “Differential Emodepside Efficacy in Drug-Resistant and Drug-Susceptible Ancylostoma caninum Highlights Variability in Potassium Channel Activity” (Tropical Medicine and Infectious Disease, 2025).
Like-named read-outs stand apart in the source and are kept apart here.

Legend:
[1] = test system: Ancylostoma caninum L3, drug-susceptible (WMD) isolate; assay: In vitro L3 larval survival assay, drug-susceptible WMD isolate; assay type: cell-based
Experimental: (§1) The wild-type (WMD) and triple-anthelmintic-resistant (BCR) isolates of A. caninum used in this study have been previously described. […] Both isolates were maintained in beagles according to established protocols.
(§2) Stock solutions of pyrantel, ivermectin, and emodepside were prepared in appropriate solvent mixtures of DMSO and BU buffer (50 mM Na2HPO4, 22 mM KH2PO4, 70 mM NaCl, pH 6.8). To account for solubility differences, pyrantel was prepared in 20% DMSO, ivermectin in 4% DMSO, and emodepside in 25% DMSO. Penitrem A was dissolved in 100% DMSO to make a 500 µM stock solution. A vehicle control solution was also prepared for each drug, containing the maximum DMSO concentration used in the stock solutions to ensure that solvent effects across treatments were adequately controlled.
(§3) Infective A. caninum L3 were collected from coproculture at least 7 days post-culture using a modified Baermann method and stored in BU in a 50 mL culture flask at room temperature for up to four weeks prior to use. The survival assay to evaluate the response of A. caninum L3 to various anthelmintics was adapted from a previously established motility assessment study.
(§4) Prior to use, L3 were surface sterilized by incubation in 1% (v/v) HCl for 30 min, followed by two washes with sterile BU buffer. The sterilized larvae were resuspended in BU to a concentration of 75 L3 per 90 µL. Larvae were transferred in aliquots of 90 µL to individual wells in a 96-well plate, and 10 µL of the appropriate drug or control solution was added to each well, bringing the final volume to 100 µL. Plates were incubated at room temperature in the dark for 24 h.
(§5) Following incubation, survival was assessed by adding 50 microliters of 50° C water to each well immediately before counting. […] For each well, the total number of living and dead L3 were counted, and percent survival was calculated as below:(1) Survival (%)=[…]
(§6) Microsoft Excel was used to normalize raw survival percentages to their respective controls and calculate standard deviation for each condition. Statistical analysis was performed using GraphPad Prism (ver. 10, GraphPad Software, La Jolla, CA, USA). Using the mean, standard deviation, and sample size calculated in Excel, multiple unpaired t-tests were performed to determine the individual variance in means between WMD and BCR.

[2] = test system: Ancylostoma caninum L3, triple-anthelmintic-resistant (BCR) isolate; assay: In vitro L3 larval survival assay, triple-anthelmintic-resistant BCR isolate; assay type: cell-based; conditions: for Difference in mean survival between BCR and WMD: BCR versus WMD L3, across all tested concentrations (4–40 µg/mL), two-tailed unpaired t-test, p < 0.0001
Experimental: as §1, §2, §3, §4, §5, §6

[3] = stated without reference; cited from earlier work
[4] = cited from earlier work; for Corresponding Cmax: po
MADR A. caninum = test system: MADR A. caninum; design: method as in PMID 36520649; conditions: dogs infected with MADR A. caninum; cited from earlier work
[5] = test system: Ancylostoma caninum L3, drug-susceptible (WMD) isolate; assay: Emodepside + penitrem A survival assay (SLO-1 modulation), WMD isolate; assay type: cell-based; conditions: 0.25 µM penitrem A + emodepside 7.5 µg/mL, 24 h, mean ± SD
Experimental: as §4, §5
(§7) To further investigate the specific mechanism of emodepside action, the SLO-1 channel inhibitor penitrem A was co-incubated with emodepside. The concentration of emodepside was kept constant (7.5 µg/mL) while that of penitrem A was titrated from 1 µM to 0.05 µM. […] Survival was assessed as above.
as §6, with “Statistical analysis was performed using GraphPad Prism (ver. 10, GraphPad Software, La Jolla, CA, USA).” left out

[6] = test system: Ancylostoma caninum L3, triple-anthelmintic-resistant (BCR) isolate; assay: Emodepside + penitrem A survival assay (SLO-1 modulation), BCR isolate; assay type: cell-based; conditions: 0.25 µM penitrem A + emodepside 7.5 µg/mL, 24 h, mean ± SD
Experimental: as §4, §5, §7
as §6, with “Statistical analysis was performed using GraphPad Prism (ver. 10, GraphPad Software, La Jolla, CA, USA).” left out

## ivermectin
[1]; low dose 4 µg/mL, 24 h, room temperature, dark, mean ± SD
  Normalized survival of L3: 14.9±9.7%
[2]; BCR L3, low dose 4 µg/mL, 24 h, room temperature, dark, mean ± SD
  Normalized survival of L3: 54.2±11.4%
[2]
  Difference in mean survival between BCR and WMD: 39.0 ± 3.0%
[2]; listed as ivermectin
  Difference in mean survival between BCR and WMD: approximately 40%
[3]
  Aqueous solubility: < 10 µg/mL
[4]; typical therapeutic dose 150–200 mg/kg, single oral administration
  Cmax: 38 to 46 ng/mL

## emodepside
[1]; 7.5 µg/mL, 24 h, mean ± SD
  Percent survival of L3, normalized to vehicle control: 13.1% ± 4.1
[1]; 30 µg/mL (maximum dose tested), 24 h, mean ± SD
  Percent survival of L3, normalized to vehicle control: 3.4% ± 3.3
[1]; 24 h survival
  IC50 (nonlinear regression of percent survival vs log concentration): 2.81 µg/mL
[2]; BCR L3, 30 µg/mL (maximum dose tested), 24 h
  Surviving L3: none
[2]; BCR L3, 24 h survival
  IC50 (nonlinear regression of percent survival vs log concentration): 1.77 µg/mL
[2]; BCR L3, starting at 7.5 µg/mL, 24 h
  Percent survival of L3: killed all BCR larvae
[2]; WMD versus BCR L3, 3 µg/mL (greatest difference)
  Difference in percent survival between WMD and BCR: 21.8±4.4
MADR A. caninum
  Greater effectiveness than drugs from other classes in reducing fecal egg count: at least 50%
[4]; in vivo
  Corresponding Cmax: 37 ng/mL

## penitrem A
[5]
  Percent survival of L3 co-incubated with emodepside: 29.8% ± 11.5
[6]
  Percent survival of L3 co-incubated with emodepside: 78.2% ± 13.8

## CN1CCCN=C1/C=C/c1cccs1 [Pyrantel, pyrantel pamoate]
[1]; 100 µg/mL, 24 h, room temperature, dark, mean ± SD
  Percent survival of L3, normalized to vehicle control: 43.9±13.7%
[1]; 10–50 µg/mL, 24 h
  Mortality of L3: almost no mortality
[2]; BCR L3, 100 µg/mL, 24 h, room temperature, dark, mean ± SD, difference to WMD not significant (p = 0.054)
  Percent survival of L3, normalized to vehicle control: 59.2±10.4%
[2]; BCR L3, 10–50 µg/mL, 24 h
  Mortality of L3: almost no mortality
[4]; in vivo, 100 mg/kg
  Cmax: 110 ng/mL
[4]; in vivo
  Corresponding Cmax: 110 ng/mL
